In PMC7765920 (Molecules, 2020):
Like-named read-outs stand apart in the source and are kept apart here. Marks after values point to notes of the source that are not given here.

Legend:
Format in all cases: biochemical
human recombinant MAO-A = biological target: T1, human recombinant MAO-A (Homo sapiens, UniProt P21397); test: MAO-GLO luminescence assay of MAO-A catalytic activity; details: for remaining activity at 1 µM: read-out: MAO-A residual activity
T1 sequence (P21397 1-527): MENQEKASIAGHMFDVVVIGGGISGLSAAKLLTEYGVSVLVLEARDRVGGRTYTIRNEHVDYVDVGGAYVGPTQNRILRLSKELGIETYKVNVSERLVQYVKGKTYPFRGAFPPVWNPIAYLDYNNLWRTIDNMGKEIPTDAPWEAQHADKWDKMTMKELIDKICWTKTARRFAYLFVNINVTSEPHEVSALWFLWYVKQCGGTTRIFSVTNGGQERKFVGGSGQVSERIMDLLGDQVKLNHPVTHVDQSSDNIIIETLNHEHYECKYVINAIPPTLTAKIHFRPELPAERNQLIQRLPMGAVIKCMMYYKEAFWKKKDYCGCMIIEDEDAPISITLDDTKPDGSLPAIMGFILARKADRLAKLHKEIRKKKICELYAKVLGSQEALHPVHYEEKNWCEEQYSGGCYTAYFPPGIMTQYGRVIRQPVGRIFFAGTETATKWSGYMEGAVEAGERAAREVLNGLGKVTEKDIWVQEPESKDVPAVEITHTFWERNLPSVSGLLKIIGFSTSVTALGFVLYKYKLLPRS
Description: (§1) Optimization of the compounds, however, aimed predominantly at elimination of MAO-A-inhibitory activity while keeping DYRK1A inhibitory potency, and not at achieving high selectivity for DYRK1A over CLK1. The tests were performed as described by us before in detail. Due to the very large number of test compounds (more than 60), a first screening was performed at a single inhibitor concentration of 1 µM.
(§2) Inhibitors were dissolved in DMSO at a concentration of 10 mM and stored at […]. Working solutions were prepared to achieve a final concentration of 1 µM in the enzyme assays.
Catalytic activity of monoamine oxidase A (MAO-A) was measured by using the luminescence-based MAO-GLO^TM Assay from Promega. Recombinant MAO-A converts a luminogenic MAO substrate into luciferin, which is, in turn, luminometrically detected in a luciferase reaction. The amount of light produced is directly proportional to MAO activity. […] Inhibitory effects of the tested compounds were calculated relative to the activity of control reactions that were run in the absence of inhibitors.

[1] = biological target: T2, GST-CLK1cat (amino acids 141–484 of human CLK1) (Homo sapiens, UniProt P49759); test: Kinase-GLO luminescent assay of CLK1 catalytic activity; details: for remaining activity at 1 µM: read-out: CLK1 residual activity
T2 construct: containing amino acids 141–484 of human CLK1; made in house; host or cells: E. coli
Description: as §1, §2
(§3) Recombinant kinases were purified from E. coli as GST (glutathione S-transferase) fusion constructs by affinity adsorption to glutathione-Sepharose. […] Catalytic activity of the kinases was measured with the help of the Kinase-GLO^TM Luminescent Assay from Promega. Assays were performed in a total volume of 10 μL in kinase buffer (25 mM Hepes pH 7.4, 0.5 mM DTT, 5 mM MgCl2, 5 μM ATP) with appropriate peptide substrates (20 μM DYRKtide for the DYRKs and 100 μM DYRKtide for HIPK2, […]; or 100 μM RS peptide for CLK1, […]). Kinases amounts in the assays were adjusted so that approximately 90% of the ATP in the assay was consumed in control samples without inhibitor. Kinase reactions were incubated at room temperature for 30 min before 10 μL Kinase-GLO reagent was added for luminometric measurement of the ATP that was not consumed by the kinases. After incubation at room temperature for an additional 10 min, luminescence was recorded for 1 s (Berthold Orion Microplate Luminometer). ATP consumption in the control samples without inhibitor was set as 100% catalytic activity, and the inhibitory effects of the test compounds were calculated relative to this value.

[2] = biological target: T3, GST-DYRK1A-ΔC (amino acids 1–499 of rat DYRK1A) (Rattus norvegicus, UniProt Q63470); test: Kinase-GLO luminescent assay of DYRK1A catalytic activity; details: for remaining activity at 1 µM: read-out: DYRK1A residual activity
T3 construct: containing amino acids 1–499 of rat DYRK1A; made in house; host or cells: E. coli
Description: as §1, §2, §3

[3] = 1 µM inhibitor concentration, residual activity relative to control without inhibitor

T2 sequence (P49759 141-484): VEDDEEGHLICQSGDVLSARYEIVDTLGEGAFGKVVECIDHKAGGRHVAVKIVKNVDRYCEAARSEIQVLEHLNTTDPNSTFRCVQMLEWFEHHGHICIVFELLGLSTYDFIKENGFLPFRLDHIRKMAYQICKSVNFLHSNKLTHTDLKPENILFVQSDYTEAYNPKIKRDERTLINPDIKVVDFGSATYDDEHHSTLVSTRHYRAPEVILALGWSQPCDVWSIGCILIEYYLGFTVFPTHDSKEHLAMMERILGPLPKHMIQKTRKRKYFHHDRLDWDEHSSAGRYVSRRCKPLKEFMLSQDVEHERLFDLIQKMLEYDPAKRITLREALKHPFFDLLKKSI

Compound | remaining activity at 1 µM (human recombinant MAO-A; [3]) | remaining activity at 1 µM [1, 3] | remaining activity at 1 µM [2, 3] | also measured
harmol [reference compound] | – | – | – | MAO-A residual activity (human recombinant MAO-A; [3]): 120%; CLK1 residual activity [1, 3]: 6 *** %; DYRK1A residual activity [2, 3]: 18%
COc1ccc(Cn2c3cc(OC)ccc3c3ccnc(C)c32)cc1 [AnnH35, 7-Methoxy-9-(4-methoxybenzyl)-1-methyl-9H-pyrido[3,4-b]indole] | 128% | 80% | 100% | –
COc1ccc2c3ccnc(C)c3n(CCC#N)c2c1 [AnnH42, 3-(7-Methoxy-1-methyl-9H-pyrido[3,4-b]indol-9-yl)propanenitrile] | 114% | 44% | 22% | –
CCCCn1c2cc(OC)ccc2c2ccnc(C)c21 [AnnH3, 9-Butyl-7-methoxy-1-methyl-9H-pyrido[3,4-b]indole] | 10% | 24% | – | –
CCOC(=O)Cn1c2c(C)nccc2c2ccc(Cl)c(Cl)c21 [AnnH66, Ethyl 2-(7,8-Dichloro-1-methyl-9H-pyrido[3,4-b]-9-yl)acetate] | 78% | 71% | 26% | –
COc1ccc2c(c1)[nH]c1c(Cl)nccc12 [AnnH24, 1-chloro-7-methoxy-9H-pyrido[3,4-b]indole] | – | 17% | – | remaining activity at 1 µM (human recombinant MAO-A): 103%
COc1ccc2c3ccnc(C)c3n(CC=C(C)C)c2c1 [AnnH73, 7-Methoxy-1-methyl-9-(3-methylbut-2-en-1-yl)-9H-pyrido[3,4-b]indole] | – | – | – | remaining activity at 1 µM (human recombinant MAO-A): 52%; remaining activity at 1 µM [1]: 2%; remaining activity at 1 µM [2]: 6%
COc1ccc2c3ccnc(C)c3n(Cc3ccc4ccccc4c3)c2c1 [AnnH39, 7-Methoxy-1-methyl-9-(2-naphthylmethyl)-9H-pyrido[3,4-b]indole] | 125% | 84% | 91% | –
COc1ccc2c([nH]c3c(C)nccc32)c1Br [AnnH5_3, 8-bromo-7-methoxy-1-methyl-9H-pyrido[3,4-b]indole] | 8% | – | 95% | –
COc1ccc2c3ccnc(C)c3n(CCN3CCCCC3)c2c1 [AnnH57, 7-Methoxy-1-methyl-9-[2-(piperidin-1-yl)ethyl]-9H-pyrido[3,4-b]indole] | 97% | 78% | 33% | –
C#CCn1c2c(Br)nccc2c2ccc(Cl)c(Cl)c21 [AnnH80, 1-Bromo-7,8-dichloro-9-(prop-2-yn-1-yl)-9H-pyrido[3,4-b]indole] | 123% | 84% | 95% | –
COc1ccc2c(c1)C(O)c1c-2ccnc1C (racemic) [AnnHT3, (±)-7-Methoxy-1-methyl-9H-indeno-[2,1-c]pyridin-9-ol] | 34% | 76% | 59% | –
CCOC(=O)Cn1c2cc(OC)ccc2c2ccnc(C)c21 [AnnH12, Ethyl 2-(7-methoxy-1-methyl-9H-pyrido[3,4-b]indol-9-yl)acetate] | 101% | 45% | 30% | –
COc1ccc2c(c1)[nH]c1c(C)cccc12 [AnnHOG3, 7-Methoxy-1-methyl-9H-carbazole] | 100% | 97% | 71% | –
COc1ccc2c(c1)[nH]c1c(=O)[nH]ccc12 [AnnH20, 7-Methoxy-2,9-dihydro-1H-pyrido[3,4-b]indol-1-one] | – | – | – | remaining activity at 1 µM (human recombinant MAO-A): 127%
COc1ccc2c(c1)C(=O)c1c-2ccnc1C [AnnHT2, 7-Methoxy-1-methyl-9H-indeno-[2,1-c]pyridin-9-one] | 15% | 54% | 55% | –
COc1c(Br)cc2c([nH]c3c(C)nc(Br)cc32)c1Br [AnnH5_4, 3,6,8-tribromoharmine] | – | – | 126% | –

Compound | remaining activity at 1 µM (human recombinant MAO-A; [3]) | remaining activity at 1 µM [1, 3] | remaining activity at 1 µM [2, 3] | also measured
COc1cc2[nH]c3c(C)nccc3c2cc1Cl [AnnH6_3_2, 6-chloro-7-methoxy-1-methyl-9H-pyrido[3,4-b]indole] | 9% | – | 92% | –
COc1ccc2c3ccnc(C)c3n(CCOc3ccccc3)c2c1 [AnnH40, 7-Methoxy-1-methyl-9-(2-phenoxyethyl)-9H-pyrido[3,4-b]indole] | 30% | 37% | 40% | –
CNC(=O)Cn1c2cc(OC)ccc2c2ccnc(C)c21 [AnnH30, 2-(7-Methoxy-1-methyl-9H-pyrido[3,4-b]indol-9-yl)-N-methylacetamide] | 24% | 87% | 64% | –
CCCCn1c2c(C)nccc2c2ccc(OC)c(Br)c21 [AnnH9, 8-Bromo-9-butyl-7-methoxy-1-methyl-9H-pyrido[3,4-b]indole] | 8% | – | 96% | –
COc1ccc2c([nH]c3c(C)nccc32)c1Cl [AnnH6_1, 8-chloro-7-methoxy-1-methyl-9H-pyrido[3,4-b]indole] | 16% | – | 97% | –
Cc1nccc2c3ccc(Cl)c(Cl)c3n(CC#N)c12 [AnnH69, 2-(7,8-Dichloro-1-methyl-9H-pyrido[3,4-b]indol-9-yl)acetonitrile] | – | – | – | remaining activity at 1 µM (human recombinant MAO-A): 101%; remaining activity at 1 µM [1]: 33%; remaining activity at 1 µM [2]: 17%
Cc1nccc2c1[nH]c1c(Cl)c(Cl)ccc12 [AnnH63, 7,8-Dichloro-1-methyl-9H-pyrido[3,4-b]indole] | 32% | 26% | 3% | –
Cc1nccc2c1[nH]c1ccccc12 [harmane, reference compound] | – | – | – | remaining activity at 1 µM (human recombinant MAO-A): 18%; remaining activity at 1 µM [2]: 97%
COc1ccc2c3ccnc(C)c3n(Cc3ccccc3)c2c1 [AnnH4, 9-Benzyl-7-methoxy-1-methyl-9H-pyrido[3,4-b]indole] | 80% | – | 88% | –
COc1ccc2c3c([nH]c2c1)C(=O)NCC3 [AnnH19, 7-methoxy-2,3,4,9-tetrahydro-1H-pyrido[3,4-b]indol-1-one] | – | > 90% | 122% | –
COc1ccc2c3ccnc(C)c3n(CCN(C)C)c2c1 [AnnH16, [2-(7-Methoxy-1-methyl-9H-pyrido[3,4-b]indol-9-yl)-ethyl]-dimethylamine] | 103% | – | 107% | –
COc1ccc2c3ccnc(C)c3n(CC(N)=O)c2c1 [AnnH28, 2-(7-Methoxy-1-methyl-9H-pyrido[3,4-b]indol-9-yl)-N-acetamide] | 131% | 89% | – | –
COc1ccc2c3ccnc(C)c3n(C)c2c1 [AnnH1] | 2% | 6% | – | –
COc1c(Br)cc2c([nH]c3c(C)nccc32)c1Br [AnnH5_1] | 70% | – | 101% | –
COc1cc2[nH]c3c(C)nccc3c2cc1Br [AnnH5_2] | 7% | – | 88% | –
COc1c(Cl)cc2c([nH]c3c(C)nccc32)c1Cl [AnnH6_3_1] | 64% | – | 99% | –
COc1ccc2c3ccnc(C)c3n(CC(=O)O)c2c1 [AnnH25, 2-(7-Methoxy-1-methyl-9H-pyrido[3,4-b]indol-9-yl)acetic acid] | 6% | 34% | – | –
